Measured values published in patent US8815309B2, “Methods of treating a subject with benign prostate hyperplasia” (Zafgen, Inc., priority 2010, dated 2014).
Marks after values point to notes of the source that are not given here.

Test system: prostate gland
Assay: Prostate weight in male rats after once daily intravenous infusion for four weeks
Assay type: in vivo, rat
Conditions: 15-min iv infusion once daily for four weeks, N=10
Experimental: Male rats were divided into a control group and three test groups with 20 animals per group. Animals were administered the MetAP-2 inhibitor Compound I, represented by the formula: Compound I was prepared in a 5% mannitol solution was administered once daily for four weeks by a fifteen-minute intravenous infusion according to Table I. [table] Ten animals from each group were euthanized at the end of the four weeks. The remaining ten animals were allowed to recover for 10 additional weeks and were then euthanized.

CO[C@@H]1[C@H](OC(=O)/C=C/c2ccc(OCCN(C)C)cc2)CCC2(CO2)[C@H]1[C@@]1(C)O[C@@H]1CC=C(C)C (stereo in doubt) [Compound I]
Prostate Weight (g) Mean (0.04 mg/kg/day): 0.90** g
Prostate Weight (g) Mean (0.2 mg/kg/day): 0.89** g
Prostate Weight (g) Mean (1.0 mg/kg/day): 0.76** g
